Experimental data as given in publication PMC4608832, “Synthesis of New 4-Aminoquinolines and Evaluation of Their In Vitro Activity against Chloroquine-Sensitive and Chloroquine-Resistant Plasmodium falciparum” (PLoS ONE, 2015).
Read-outs that look alike come from different tables or passages of the source.

Columns and labels:
[1] = system: P. falciparum K1 (CQ-resistant); assay: In vitro antiplasmodial activity, 3H-hypoxanthine incorporation, strain K1; type: cell-based; conditions: Plasmodium falciparum, IC50 ± SD
Description: (§1) The following strains of Plasmodium falciparum were used in this study: F32 (Tanzania), Dd2 (SE Asia), K1 (SE Asia), FcB1 (Colombia), K14 (Cambodia) and 3D7 (Africa). […] Parasites at the ring stage (laboratory A) or asynchronous parasites (laboratory B) were grown in human A+ or O+ red blood cells at a 1.5% (laboratory A) or 2% (laboratory B) haematocrit and a 0.8–1% parasitaemia. Synchronization of the parasites was performed by sorbitol treatment.
(§2) Further dilutions were in complete culture medium. The complexes were tested for their inhibitory effect toward P. falciparum intraerythrocytic development. […] 100 μL from a culture at a 3% (laboratory A) or 4% (laboratory B) hematocrit in complete medium was added per well. […] Plates were freeze-thawed and harvested on filters. […] The percentage of growth inhibition was calculated from the parasite-associated radioactivity. 100% ^3H-hypoxanthine incorporation was determined from a control grown in the absence of drug or test compound.

[2] = system: P. falciparum FcB1 (CQ-resistant); assay: In vitro antiplasmodial activity, 3H-hypoxanthine incorporation, strain FcB1; type: cell-based; conditions: Plasmodium falciparum
Description: as §1, §2
(§3) IC50 ± SD values (nM) determined from independent experiments performed in triplicate under the conditions of laboratory B (Paris).

[3] = In vitro microsomal metabolic stability; conditions: for microsomal CLint at 1 μM / half-life at 1 μM: human; for microsomal CLint at 1 μM: pH 7.4
Description: The evaluation of microsomal stability was performed by Cyprotex US, LLC, Watertown, MA. […] After separation on an HILIC HPLC colum (Sepax HILIC […] 2.1 x 30 mm) using an acetonitrile-water gradient system, peaks were analyzed by mass spectrometry (MS) using ESI ionization in MRM mode. The signal was optimized for each compound by ESI positive or negative ionization mode. An MS2 scan or an SIM scan was used to optimize the fragmenter voltage and a product ion analysis was used to identify the best fragment for analysis, and the collision energy was optimized using a product ion or MRM scan. An ionization ranking was assigned indicating the compound’s ease of ionization.
A control reaction omitting NADPH was performed for each compound in order to detect any NADPH-independent degradation. Aliquots were removed at 0, 10, 20, 40, and 60 min and mixed with an equal volume of ice-cold Stop Solution (methanol containing haloperidol, diclofenac, or other internal standard). The stopped reactions were further incubated for at least 10 min at -20°C, and an additional volume of water was added. The samples were centrifuged to remove precipitated protein, and the supernatants were analyzed by LC/MS/MS to quantify the remaining parent. Data were converted to % remaining by dividing by the time zero concentration value, and fitted to a first-order decay model to determine half-life values. Intrinsic clearance values were calculated from the half-life and protein concentrations by using the equation CLint = ln 2 / t1/2 [microsomal protein].

[4] = system: P. falciparum 3D7 (CQ-sensitive); assay: In vitro antiplasmodial activity, 3H-hypoxanthine incorporation, strain 3D7; type: cell-based; conditions: Plasmodium falciparum, IC50 ± SD
Description: as §1, §2

[5] = system: P. falciparum K14 (CQ-resistant); assay: In vitro antiplasmodial activity, 3H-hypoxanthine incorporation, strain K14; type: cell-based; conditions: Plasmodium falciparum
Description: as §1, §2, §3

P. falciparum Dd2 = assay: In vitro antiplasmodial activity, 3H-hypoxanthine incorporation, strain Dd2; type: cell-based; conditions: Plasmodium falciparum, IC50 ± SD
Description: as §1, §2

[6] = system: P. falciparum F32 (CQ-sensitive); assay: In vitro antiplasmodial activity, 3H-hypoxanthine incorporation, strain F32; type: cell-based; conditions: Plasmodium falciparum
Description: as §1, §2, §3

[7] = Cytotoxicity, MTT, L6 cells; type: cell-based; conditions: rat, L-6 cells, concentration inducing 50% of cell growth arrest, three days
Description: (§4) The rat L-6 and human MRC-5 cell lines were routinely grown in RPMI 1640 supplemented with 11 mM glucose, 27.5 mM NaHCO3, 100 UI/mL penicillin, 100 μg/mL streptomycin and 10% fetal calf serum (RPMI-FCS), in a 5% CO2 incubator at 37°C. For cytotoxicity assays, 100 μL per well of a 2×10^4 cells/mL suspension in RPMI-FCS were deposited in a 96-well microplate and incubated overnight in culture conditions. Then decreasing concentrations of the compounds to test were established by twofold serial dilutions in RPMI-FCS and distributed at a rate of 100 μL per well and the microplate was put back in the incubator for an additional three (L-6) or five (MRC-5) day period. Then the supernatant in each well was discarded and replaced by 100 μL of MTT 1 mg/mL in RPMI-FCS. The microplate was re-incubated in culture conditions for three hours, then 100 μL of 10% SDS was added by well. The cells were left overnight in the incubator then the OD at 540nm was measured with the Bio-Tek FL600™ microplate reader equipped with the KC4™ software. […] The selectivity of each compound to P. falciparum was assessed through the selectivity index (SI), defined as CC50 (to L6 or MRC5 cells) / IC50 (to P. falciparum).

[8] = Cytotoxicity, MTT, MRC5 cells; type: cell-based; conditions: human, MRC-5 cells, concentration inducing 50% of cell growth arrest, five days
Description: as §4

[9] = K1, laboratory A (Marseille), 5% CO2, 10% O2, 85% N2, read-out: Antiplasmodial activity, IC50, K1
[10] = K1, laboratory B (Paris), candle jar ~17% O2, 3% CO2, 80% N2, read-out: Antiplasmodial activity, IC50, K1
[11] = FCB1, laboratory B (Paris), IC50 ± SD, read-out: Antiplasmodial activity, IC50, FcB1
[12] = human liver microsomes, pH 7.4, NADPH-dep. t1/2, human liver microsomes, [Compd] = 1 μM, [protein] = 0.3 mg/mL, with NADPH
[13] = human liver microsomes, pH 7.4, NADPH-free t1/2, human liver microsomes, [Compd] = 1 μM, [protein] = 0.3 mg/mL, without NADPH
[14] = 3D7, laboratory A (Marseille), 5% CO2, 10% O2, 85% N2, read-out: Antiplasmodial activity, IC50, 3D7
[15] = 3D7, laboratory B (Paris), candle jar ~17% O2, 3% CO2, 80% N2, read-out: Antiplasmodial activity, IC50, 3D7
[16] = laboratory B (Paris), IC50 ± SD, read-out: Antiplasmodial activity, IC50, K14
[17] = DD2, laboratory A (Marseille), 5% CO2, 10% O2, 85% N2, Dd2 CQ-resistant under these conditions, read-out: Antiplasmodial activity, IC50, Dd2
[18] = DD2, laboratory B (Paris), candle jar ~17% O2, 3% CO2, 80% N2, Dd2 CQ-sensitive under these conditions, read-out: Antiplasmodial activity, IC50, Dd2
[19] = F32, laboratory B (Paris), IC50 ± SD, read-out: Antiplasmodial activity, IC50, F32

| Compound | IC50 [1, 9] | IC50 [1, 10] | IC50 [2, 11] | microsomal CLint at 1 μM ([3]; human liver microsomes) | half-life at 1 μM [3, 12] | half-life at 1 μM [3, 13] | IC50 [4, 14] | IC50 [4, 15] | IC50 [5, 16] | IC50 (P. falciparum Dd2; [17]) | IC50 (P. falciparum Dd2; [18]) | CC50 at 3 days [7] | CC50 at 5 days [8] | IC50 [6, 19] | further results |
| --- | --- | --- | --- | --- | --- | --- | --- | --- | --- | --- | --- | --- | --- | --- | --- |
| CCN(CC)CCCC(C)Nc1ccnc2cc(Cl)ccc12 (centres unmarked) [CQ, chloroquine] | – | – | – | – | – | – | – | – | – | – | – | – | – | – | IC50 ([1]; K1, read-out: Antiplasmodial activity, IC50, K1, laboratory A (Marseille), 5% CO2, 10% O2, 85% N2): 1.09 ± 0.164 µM; IC50 ([1]; K1, read-out: Antiplasmodial activity, IC50, K1, laboratory B (Paris), candle jar ~17% O2, 3% CO2, 80% N2): 0.124 ± 0.048 µM; IC50 ([2]; FCB1, read-out: Antiplasmodial activity, IC50, FcB1): 0.111 ± 0.043 µM; NADPH-dep. t1/2 ([3]; human liver microsomes, [Compd] = 1 μM, [protein] = 0.3 mg/mL, with NADPH): 2.22 ± 0.2587 h; microsomal CLint at 1 μM ([3]; microsomes): 17.5 ± 2.03 µL/min/mg; half-life at 1 μM ([3]; microsomes, pH 7.4, NADPH-dep. t1/2, human liver microsomes, [Compd] = 1 μM, [protein] = 0.3 mg/mL, with NADPH): 2.22 ± 0.258 h; half-life at 1 μM ([3]; microsomes, pH 7.4, NADPH-free t1/2, human liver microsomes, [Compd] = 1 μM, [protein] = 0.3 mg/mL, without NADPH): > 4 h; IC50 ([4]; 3D7, read-out: Antiplasmodial activity, IC50, 3D7, laboratory A (Marseille), 5% CO2, 10% O2, 85% N2): 0.0176 ± 0.00071 µM; IC50 ([4]; 3D7, read-out: Antiplasmodial activity, IC50, 3D7, laboratory B (Paris), candle jar ~17% O2, 3% CO2, 80% N2): 0.018 ± 0.0123 µM; IC50 ([5]; read-out: Antiplasmodial activity, IC50, K14): 0.103 ± 0.0925 µM; IC50 (P. falciparum Dd2; DD2, read-out: Antiplasmodial activity, IC50, Dd2, laboratory A (Marseille), 5% CO2, 10% O2, 85% N2, Dd2 CQ-resistant under these conditions): 0.522 ± 0.0957 µM; IC50 (P. falciparum Dd2; DD2, read-out: Antiplasmodial activity, IC50, Dd2, laboratory B (Paris), candle jar ~17% O2, 3% CO2, 80% N2, Dd2 CQ-sensitive under these conditions): 0.0351 ± 0.0121 µM; IC50 ([6]; F32, read-out: Antiplasmodial activity, IC50, F32): 0.0339 ± 0.0123 µM |
| CCN(CC)Cc1cccc(CNc2ccnc3cc(Cl)ccc23)c1 [Compound 2, 7-Chloro-N-(3-((diethylamino)methyl)benzyl)quinolin-4-amine] | 0.0642 ± 0.00616 µM | 0.012 ± 0.00115 µM | 0.0303 ± 0.0017 µM | 56.2 ± 0.55 µL/min/mg | 0.685 ± 0.00683 h | > 4 h | 0.0184 ± 0.00066 µM | 0.0171 ± 0.00297 µM | 0.0236 ± 0.00173 µM | 0.0265 ± 0.00507 µM | 0.0171 ± 0.00172 µM | 20.6 ± 3.92 µM | 20.3 ± 3.4 µM | 0.0147 ± 0.00045 µM | – |
| CCN(CC)Cc1ccccc1CNc1ccnc2cc(Cl)ccc12 [Compound 1, 7-Chloro-N-(2-((diethylamino)methyl)benzyl)quinolin-4-amine] | 0.0527 ± 0.00099 µM | 0.0146 ± 0.00036 µM | 0.0121 ± 0.0012 µM | 45.6 ± 0.12 µL/min/mg | 0.848 ± 0.00917 h | > 4 h | 0.0135 ± 0.00071 µM | 0.0216 ± 0.00311 µM | 0.0135 ± 0.00466 µM | 0.0213 ± 0.00252 µM | 0.0194 ± 0.00218 µM | 27.7 ± 1.73 µM | 26.4 ± 1.75 µM | 0.03 ± 0.0152 µM | – |
| CCN(CC)Cc1ccc(-c2ccc(CNc3ccnc4cc(Cl)ccc34)cc2)cc1 [Compound 4, 7-Chloro-N-((4’-((diethylamino)methyl)-[1,1’-biphenyl]-4-yl)methyl)quinolin-4-amine] | 0.0534 ± 0.00203 µM | 0.0118 ± 0.001 µM | 0.0179 ± 0.0017 µM | 466 ± 44 µL/min/mg | ~0.0833 h | > 4 h | 0.0152 ± 0.00157 µM | 0.0129 ± 0.00085 µM | – | 0.0207 ± 0.0002 µM | 0.0144 ± 0.0005 µM | 2.8 ± 0.15 µM | 2.6 ± 0.12 µM | 0.0169 ± 0.001 µM | IC50 ([5]; under conditions A (as printed in text), read-out: IC50 against K14 strain): 0.0075 µM |
| CCN(CC)CC1=C(CNc2ccnc3cc(Cl)ccc23)CC=CC1 [Compound 5, 7-Chloro-N-((2-((diethylamino)methyl)cyclohexa-1,4-dien-1-yl)methyl)quinolin-4-amine] | 0.0637 ± 0.00146 µM | 0.0202 ± 0.00655 µM | – | – | – | – | – | – | 0.0187 ± 0.00116 µM | 0.059 ± 0.00185 µM | – | – | – | 0.0254 ± 0.00531 µM | – |
| CCN(CC)Cc1ccc(CNc2ccnc3cc(Cl)ccc23)cc1 [Compound 3, 7-Chloro-N-(4-((diethylamino)methyl)benzyl)quinolin-4-amine] | 0.0603 ± 0.00407 µM | 0.0124 ± 0.0004 µM | 0.0315 ± 0.0057 µM | 51.1 ± 3.06 µL/min/mg | 0.755 ± 0.0227 h | > 4 h | 0.0173 ± 0.00058 µM | 0.0161 ± 0.00244 µM | 0.033 ± 0.00576 µM | 0.0305 ± 0.00212 µM | 0.0177 ± 0.00378 µM | 13.8 ± 1.9 µM | 13 ± 2.26 µM | 0.0243 ± 0.0029 µM | – |
